Experiment [1] deals with OCI-AML-5. The experiment is described as follows: Cell viability CellTiter-Glo, OCI-AML-5. The format is cell-based. Particulars: Homo sapiens; OCI-AML-5, leukemia. The method, then: (§1) Cell viability was measured by using the Promega CellTiter-Glo kit, the kit reflected cell viability by directly measuring intracellular ATP content. Different cancer cells were cultured in culture medium, and the 50% inhibitory concentration IC50 of the compound SJ2858 was measured by Promega CellTiter-Glo kit. The name source and culture condition of each tumor cell line were as follows:
Cell line OCI-AML-5 (DSMZ, No. ACC-247) was cultured in alpha-MEM medium containing 20% fetal bovine serum and 20% volume fraction of 5637 cell line adjusted medium (+P/S);

Experiment [2] deals with H9. The experiment is described as follows: Cell viability CellTiter-Glo, H9. The format is cell-based. Conditions: Homo sapiens; H9, lymphoma. The method, then: as §1
Cell line H9 (ATCC, No. HTB-176) was cultured in RPMI1640 medium containing 10% fetal bovine serum (+P/S);

In experiment [3] the test system is D283 Med. The experiment is described as follows: Cell viability CellTiter-Glo, D283 Med. In kind it is cell-based. Particulars: Homo sapiens, brain cancer. The protocol: as §1
Cell line D283 Med (ATCC, No. HTB-185) was cultured in EMEM medium containing 10% fetal bovine serum (+P/S);

The test system of experiment [4] is MIA PaCa-2. The experiment is described as follows: Cell viability CellTiter-Glo, MIA PaCa-2. Particulars: Homo sapiens; MIA PaCa-2, pancreatic cancer. In kind it is cell-based. The method, then: as §1
Cell line MIA PaCa-2 (ATCC, No. CRL-1420) was cultured in DMEM medium containing 10% fetal bovine serum (+P/S);

Experiment [5] has as its system ATN-1. The experiment can be described thus: Cell viability CellTiter-Glo, ATN-1. The format is cell-based. Particulars: Homo sapiens; ATN-1, leukemia. The protocol: as §1
Cell line ATN-1 (RIKEN, No. RBRC-RCB1440) was cultured in RPMI1640 medium containing 10% fetal bovine serum and 0.1 mM NEAA (+P/S);

In experiment [6] the test system is Jurkat, Clone E6-1. The experiment can be described thus: Cell viability CellTiter-Glo, Jurkat, Clone E6-1. The format is cell-based. Particulars: Homo sapiens, Clone E6-1, leukemia. The protocol:
as §1
Cell line Jurkat, Clone E6-1 (ATCC, No. TIB-152) was cultured in RPMI1640 medium containing 10% fetal bovine serum (+P/S);

For experiment [7], the system named is DU 145. The experiment can be described thus: Cell viability CellTiter-Glo, DU 145. The format is cell-based. Conditions: Homo sapiens; DU 145, prostate cancer. The protocol:
as §1
Cell line DU 145 (ATCC, No. HTB-81) was cultured in EMEM medium containing 10% fetal bovine serum (+P/S);

The test system of experiment [8] is BT-549. The experiment is described as follows: Cell viability CellTiter-Glo, BT-549. Particulars: Homo sapiens; BT-549, breast cancer. In kind it is cell-based. The method, then: as §1
Cell line BT-549 (ATCC, No. HTB-122) was cultured in RPMI1640 medium containing 10% fetal bovine serum and 0.023 IU/ml human insulin (+P/S);

Experiment [9] concerns Daoy cell. The experiment can be described thus: Cell viability, Promega CellTiter-Glo, Daoy cell. Particulars: Homo sapiens, Daoy, read-out: IC50 of cell viability inhibition. In kind it is cell-based, human. The protocol: Cell viability was detected by using the Promega CellTiter-Glo kit, the kit reflected cell viability by directly measuring intracellular ATP content. […] Daoy cell and NCI-H82 cell were cultured in DMEM containing 10% FBS (plus p/s).

Experiment [10] relates to COLO 320HSR. The experiment can be described thus: Cell viability CellTiter-Glo, COLO 320HSR. The format is cell-based. Particulars: Homo sapiens, intestinal cancer. The protocol: as §1
Cell line COLO 320HSR (ATCC, No. CCL-220.1) was cultured in RPMI1640 medium containing 10% fetal bovine serum (+P/S);

The subject of experiment [11] is NCI-H 1793. The experiment can be described thus: Cell viability CellTiter-Glo, NCI-H 1793. Particulars: Homo sapiens, NCI-H1793; NCI-H 1793, lung cancer. In kind it is cell-based. The method, then: as §1
Cell line NCI-H1793 (ATCC, No. CRL-5896) was cultured in HITES medium containing 5% fetal bovine serum (+P/S);

The test system of experiment [12] is NCI-H1048. The experiment is described as follows: Cell viability CellTiter-Glo, NCI-H1048. In kind it is cell-based. Conditions: Homo sapiens; NCI-H1048, lung cancer. The protocol: as §1
Cell line NCI-H1048 (ATCC, No. CRL-5853) was cultured in HITES medium containing 5% fetal bovine serum (+P/S);

Experiment [13] deals with oxidative phosphorylation pathway of mitochondria. The experiment can be described thus: Cellular oxygen consumption (OCR), XFe metabolic analysis system. The format is cell-based. Conditions: NCI-H82 cell; 73.2 μM; within half an hour; FIG. 1. The protocol: The oxygen required by cell was mainly consumed in the mitochondria respiratory chain, so the measurement of cellular oxygen consumption (OCR, oxygen consumption rate) could directly reflect the activity of the oxidative phosphorylation pathway of mitochondria. In this experiment, the XFe metabolic analysis system was used to measure the oxygen consumption of NCI-H82 cell in the presence or absence of Compound SJ2858 (baicalein) and Compound SJ2775 (baicalin).
Rotenone (abbreviated as RO, 0.5 μM) is a known inhibitor of mitochondria oxidative phosphorylation pathway complex I, Antimycin A (abbreviated as AA, 0.5 μM) is a known inhibitor of mitochondria oxidative phosphorylation pathway complex III. Compound SJ2858, 73.2 μM; Compound SJ2775, 118.2 μM.

In experiment [14] the test system is GAK. The experiment is described as follows: Cell viability CellTiter-Glo, GAK. In kind it is cell-based. Particulars: melanoma. The method, then:
as §1
Cell line GAK (JCRB, No. JCRB0180) was cultured in Ham's F12 medium containing 20% fetal bovine serum (+P/S);

For experiment [15], the system named is U-87 MG. The experiment can be described thus: Cell viability CellTiter-Glo, U-87 MG. The format is cell-based. Conditions: Homo sapiens, brain cancer. The protocol: as §1
Cell line U-87MG (ATCC, No. HTB-14) was cultured in EMEM medium containing 10% fetal bovine serum (+P/S);

In experiment [16] the test system is LS 180. The experiment is described as follows: Cell viability CellTiter-Glo, LS 180. In kind it is cell-based. Particulars: Homo sapiens, LS180; LS 180, intestinal cancer. The protocol:
Cell viability was measured by using the Promega CellTiter-Glo kit, the kit reflected cell viability by directly measuring intracellular ATP content. Different cancer cells were cultured in culture medium, and the 50% inhibitory concentration IC50 of the compound SJ2858 was measured by Promega CellTiter-Glo kit. The name source and culture condition of each tumor cell line were as follows: […]

Experiment [17] deals with G-361. The experiment can be described thus: Cell viability CellTiter-Glo, G-361. The format is cell-based. Conditions: Homo sapiens; G-361, melanoma. The method, then:
as §1
Cell line G-361 (ATCC, No. CRL-1424) was cultured in McCoy's 5a medium containing 10% fetal bovine serum (+P/S).

Experiment [18] relates to SU-DHL-2. The experiment can be described thus: Cell viability CellTiter-Glo, SU-DHL-2. The format is cell-based. Particulars: Homo sapiens; SU-DHL-2, lymphoma. The method, then:
as §1
Cell line SU-DHL-2 (ATCC, No. CRL-2956) was cultured in RPMI1640 medium containing 10% fetal bovine serum (+P/S);

Experiment [19] deals with Gp2D. The experiment can be described thus: Cell viability CellTiter-Glo, Gp2D. The format is cell-based. Particulars: intestinal cancer. The protocol: as §1
Cell line Gp2D (ECACC, No. 95090714) was cultured in DMEM medium containing 10% fetal bovine serum (+P/S);

We go through 1 compound from patent US20230098254A1, “SCUTELLARIAE RADIX COMPOUNDS AND USE THEREOF FOR INHIBITING OXIDATIVE PHOSPHORYLATION PATHWAY OF MITOCHONDRIA” (priority 2020, published 2023).

Molecules are shown by their SMILES. pIC50: −log10 of the molar value. Like-named read-outs stand apart in the source and are kept apart here.

On to `O=c1cc(-c2ccccc2)oc2cc(O)c(O)c(O)c12` [Compound SJ2858, baicalein], for which the pIC50 was 4.35 in experiment [1]; 4.72 in [2]; 4.89 in experiment [3]; 4.71 in [4]; 4.60 in experiment [5]; 4.85 in experiment [6]. In addition, the negative logarithm of the IC50 (pIC50) in experiment [7] is 4.42; in experiment [8] it was 4.74; in experiment [9] (Daoy cell with CSA (1.5 μM mPTP inhibitor)), 4.88; in [9] (Daoy cell without CSA (active mPTP)), 4.45; in [10], 4.75; in experiment [11], 4.45. The pIC50 in [12] was 4.82; in experiment [14], 4.64; in experiment [15], 4.72; in experiment [16] it was 4.76; in experiment [17], 4.47; in [18] it was 5.21. The compound also showed a pIC50 in [19] of 4.83. Besides, the “Inhibition of oxygen consumption (in words)” value in experiment [13] is listed as “significantly inhibit”.
